Source: PubChem BioAssay AID2060493 (Molecular Pharmacology Branch, DTP, NCI, 2025)

Test system: 616215-338-R-J1-PDC tumor spheroids, viability
Test: Anticancer human tumor 616215-338-R-J1-PDC patient-derived colon adenocarcinoma cell line growth inhibition [GQUAD]
Conditions: spheroids with HUVEC and MSC; for IC50: curve of first compound; for viability, T/C: stronger effect = lower value; active = viability on the fitted dose curve at most 10% of control; inactive = the rest
Method in brief: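 Viability of tumor cells grown as complex spheroids with endothelial and stromal cells, exposed to drug combinations. Top concentration at or near clinical Cmax (else 10 microM), diluted in half-log increments.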

[1] = second compound 0.0316 µM, first compound 0.000999 µM
[2] = second compound 0.0316 µM, first compound 0.00316 µM
[3] = second compound 0.0316 µM, first compound 0.00999 µM
[4] = second compound 0.0316 µM, first compound 0.0316 µM
[5] = second compound 0.0316 µM, first compound 0.0999 µM
[6] = second compound 0.0316 µM, first compound 0.316 µM
[7] = second compound 0.1 µM, first compound 0.000999 µM
[8] = second compound 0.1 µM, first compound 0.00316 µM
[9] = second compound 0.1 µM, first compound 0.00999 µM
[10] = second compound 0.1 µM, first compound 0.0316 µM
[11] = second compound 0.1 µM, first compound 0.0999 µM
[12] = second compound 0.1 µM, first compound 0.316 µM
[13] = second compound 0.316 µM, first compound 0.000999 µM
[14] = second compound 0.316 µM, first compound 0.00316 µM
[15] = second compound 0.316 µM, first compound 0.00999 µM
[16] = second compound 0.316 µM, first compound 0.0316 µM
[17] = second compound 0.316 µM, first compound 0.0999 µM
[18] = second compound 0.316 µM, first compound 0.316 µM
[19] = second compound 1 µM, first compound 0.000999 µM
[20] = second compound 1 µM, first compound 0.00316 µM
[21] = second compound 1 µM, first compound 0.00999 µM
[22] = second compound 1 µM, first compound 0.0316 µM
[23] = second compound 1 µM, first compound 0.0999 µM
[24] = second compound 1 µM, first compound 0.316 µM
[25] = second compound 3.16 µM, first compound 0.000999 µM
[26] = second compound 3.16 µM, first compound 0.00316 µM
[27] = second compound 3.16 µM, first compound 0.00999 µM
[28] = second compound 3.16 µM, first compound 0.0316 µM
[29] = second compound 3.16 µM, first compound 0.0999 µM
[30] = second compound 3.16 µM, first compound 0.316 µM
[31] = second compound 10 µM, first compound 0.000999 µM
[32] = second compound 10 µM, first compound 0.00316 µM
[33] = second compound 10 µM, first compound 0.00999 µM
[34] = second compound 10 µM, first compound 0.0316 µM
[35] = second compound 10 µM, first compound 0.0999 µM
[36] = second compound 10 µM, first compound 0.316 µM
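Also: spheroids exposed to agents for 7 days before readout.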
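For viability, T/C in this document: percent viability relative to DMSO vehicle control wells taken as 100%.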

CCc1c2c(nc3ccc(O)cc13)-c1cc3c(c(=O)n1C2)COC(=O)[C@]3(O)CC + CN(C)c1ccc(Nc2c3ccc(NC(=O)CCN4CCCC4)cc3nc3cc(NC(=O)CCN4CCCC4)ccc23)cc1
0.0124 µM: IC50 (second compound 1 µM)
0.0143 µM: IC50 (second compound 0.0316 µM)
0.00862 µM: IC50 (second compound 10 µM)
0.0174 µM: IC50 (second compound 0.1 µM)
0.0113 µM: IC50 (second compound 3.16 µM)
inactive: viability, T/C [1] 93.8% | viability, T/C [2] 92.4% | viability, T/C [3] 53.7% | viability, T/C [4] 32.6% | viability, T/C [5] 18.1% | viability, T/C [6] 8.35% | viability, T/C [7] 112% | viability, T/C [8] 99.8% | viability, T/C [9] 70.3% | viability, T/C [10] 28.9% | viability, T/C [11] 13.8% | viability, T/C [12] 12.4% | viability, T/C [13] 101% | viability, T/C [14] 96.7% | viability, T/C [15] 59.9% | viability, T/C [16] 27% | viability, T/C [17] 18% | viability, T/C [18] 8.81% | viability, T/C [19] 97.3% | viability, T/C [20] 94.3% | viability, T/C [21] 46.9% | viability, T/C [22] 35% | viability, T/C [23] 20.5% | viability, T/C [24] 10.3% | viability, T/C [25] 98.3% | viability, T/C [26] 86.8% | viability, T/C [27] 49.3% | viability, T/C [28] 30.2% | viability, T/C [29] 19.3% | viability, T/C [30] 12.6% | viability, T/C [31] 95.7% | viability, T/C [32] 73.9% | viability, T/C [33] 46% | viability, T/C [34] 25.9% | viability, T/C [35] 13.2%
active: viability, T/C [36] 8.62%
0.0146 µM: IC50 (second compound 0.316 µM)

CC[C@@]1(O)C(=O)OCc2c1cc1n(c2=O)Cc2cc3c(CN(C)C)c(O)ccc3nc2-1 + Cc1[nH]c2ccc(F)cc2c1-c1nc2c3cccnc3c3ncccc3c2[nH]1
0.186 µM: IC50 (second compound 10 µM)
0.232 µM: IC50 (second compound 0.316 µM)
> 0.316 µM: IC50 (second compound 0.1 µM) | IC50 (second compound 1 µM)
inactive: viability, T/C [1] 102% | viability, T/C [2] 99.7% | viability, T/C [3] 103% | viability, T/C [4] 99.4% | viability, T/C [5] 90.5% | viability, T/C [6] 48.2% | viability, T/C [7] 105% | viability, T/C [8] 111% | viability, T/C [9] 97% | viability, T/C [10] 101% | viability, T/C [11] 89.5% | viability, T/C [12] 55.2% | viability, T/C [13] 88.9% | viability, T/C [14] 109% | viability, T/C [15] 100% | viability, T/C [16] 101% | viability, T/C [17] 79.8% | viability, T/C [18] 38.9% | viability, T/C [19] 93% | viability, T/C [20] 108% | viability, T/C [21] 95.3% | viability, T/C [22] 97.7% | viability, T/C [23] 90.9% | viability, T/C [24] 51.1% | viability, T/C [25] 88.8% | viability, T/C [26] 89.9% | viability, T/C [27] 92% | viability, T/C [28] 95.5% | viability, T/C [29] 87% | viability, T/C [30] 42.6% | viability, T/C [31] 98.2% | viability, T/C [32] 110% | viability, T/C [33] 87.8% | viability, T/C [34] 94.5% | viability, T/C [35] 71.4% | viability, T/C [36] 31.4%
0.302 µM: IC50 (second compound 0.0316 µM)
0.262 µM: IC50 (second compound 3.16 µM)

O=C(c1cc(Cc2n[nH]c(=O)c3ccccc23)ccc1F)N1CCN(C(=O)C2CC2)CC1 + Cc1[nH]c2ccc(F)cc2c1-c1nc2c3cccnc3c3ncccc3c2[nH]1
> 10 µM: IC50 (second compound 0.0316 µM) | IC50 (second compound 0.1 µM) | IC50 (second compound 0.316 µM) | IC50 (second compound 1 µM) | IC50 (second compound 3.16 µM) | IC50 (second compound 10 µM)
inactive: viability, T/C [4] 99.5% | viability, T/C (second compound 0.0316 µM, first compound 0.1 µM) 97% | viability, T/C [6] 107% | viability, T/C (second compound 0.0316 µM, first compound 1 µM) 101% | viability, T/C (second compound 0.0316 µM, first compound 3.16 µM) 98.6% | viability, T/C (second compound 0.0316 µM, first compound 10 µM) 74.2% | viability, T/C [10] 102% | viability, T/C (second compound 0.1 µM, first compound 0.1 µM) 100% | viability, T/C [12] 93.8% | viability, T/C (second compound 0.1 µM, first compound 1 µM) 102% | viability, T/C (second compound 0.1 µM, first compound 3.16 µM) 105% | viability, T/C (second compound 0.1 µM, first compound 10 µM) 72.3% | viability, T/C [16] 93.9% | viability, T/C (second compound 0.316 µM, first compound 0.1 µM) 105% | viability, T/C [18] 98.9% | viability, T/C (second compound 0.316 µM, first compound 1 µM) 100% | viability, T/C (second compound 0.316 µM, first compound 3.16 µM) 104% | viability, T/C (second compound 0.316 µM, first compound 10 µM) 73.7% | viability, T/C [22] 98.8% | viability, T/C (second compound 1 µM, first compound 0.1 µM) 95.1% | viability, T/C [24] 104% | viability, T/C (second compound 1 µM, first compound 1 µM) 107% | viability, T/C (second compound 1 µM, first compound 3.16 µM) 85.9% | viability, T/C (second compound 1 µM, first compound 10 µM) 53.4% | viability, T/C [28] 99.5% | viability, T/C (second compound 3.16 µM, first compound 0.1 µM) 105% | viability, T/C [30] 95% | viability, T/C (second compound 3.16 µM, first compound 1 µM) 96.8% | viability, T/C (second compound 3.16 µM, first compound 3.16 µM) 110% | viability, T/C (second compound 3.16 µM, first compound 10 µM) 67.2% | viability, T/C [34] 96.5% | viability, T/C (second compound 10 µM, first compound 0.1 µM) 87.6% | viability, T/C [36] 98.2% | viability, T/C (second compound 10 µM, first compound 1 µM) 84.3% | viability, T/C (second compound 10 µM, first compound 3.16 µM) 91.3% | viability, T/C (second compound 10 µM, first compound 10 µM) 52%
